# Patent US10385070B2, “Chroman-spirocyclic piperidine amides as modulators of ion channels” (VERTEX PHARMACEUTICALS INCORPORATED, priority 2011, dated 2019)
# Target: human NaV subtype, like NaV 1.7 (Homo sapiens, UniProt Q15858)
# Assay: E-VIPR optical membrane potential assay with electrical stimulation
# Assay type: cell-based
# Conditions: active against one or more sodium channels; assay and NaV subtype not specified for Table 3; read-out: IC50 Binned Activity Data
# Excerpt: Assays for Detecting and Measuring NaV Inhibition Properties of Compound E-VIPR Optical Membrane Potential Assay Method with Electrical Stimulation
# Sodium channels are voltage-dependent proteins that can be activated by inducing membrane voltage changes by applying electric fields. The electrical stimulation instrument and methods of use are described in Ion Channel Assay Methods PCT/US01/21652, herein incorporated by reference and are referred to as E-VIPR. The instrument comprises a microtiter plate handler, an optical system for exciting the coumarin dye while simultaneously recording the coumarin and oxonol emissions, a waveform generator, a current- or voltage-controlled amplifier, and a device for inserting electrodes in well. Under integrated computer control, this instrument passes user-programmed electrical stimulus protocols to cells within the wells of the microtiter plate.
# 24 hours before the assay on E-VIPR, HEK cells expressing human NaV subtype, like NaV 1.7, are seeded in 384-well poly-lysine coated plates at 15,000-20,000 cells per well. Other subtypes are performed in an analogous mode in a cell line expressing the NaV of interest. HEK cells are grown in media (exact composition is specific to each cell type and NaV subtype) supplemented with 10% FBS (Fetal Bovine Serum, qualified; GibcoBRL #16140-071) and 1% Pen-Strep (Penicillin-Streptomycin; GibcoBRL #15140-122). Cells are grown in vented cap flasks, in 90% humidity and 10% CO2, to 100% confluence. They are usually split by trypsinization 1:10 or 1:20, depending on scheduling needs, and grown for 2-3 days before the next split.
# 100 mg/mL Pluronic F-127 (Sigma #P2443), in dry DMSO
# Compound Plates: 384-well round bottom plate, e.g. Corning 384-well Polypropylene Round Bottom #3656
# Cell Plates: 384-well tissue culture treated plate, e.g. Greiner #781091-1B
# Bath1 buffer. Glucose 10 mM (1.8 g/L), Magnesium Chloride (Anhydrous), 1 mM (0.095 g/L), Calcium Chloride, 2 mM (0.222 g/L), HEPES 10 mM (2.38 g/L), Potassium Chloride, 4.5 mM (0.335 g/L), Sodium Chloride 160 mM (9.35 g/L).
# Hexyl Dye Solution: Bath1 Buffer+0.5% β-cyclodextrin (make this prior to use, Sigma #C4767), 8 μM CC2-DMPE+2.5 μM DiSBAC6(3). To make the solution Add volume of 10% Pluronic F127 stock equal to volumes of CC2-DMPE+DiSBAC6(3). The order of preparation is first mix Pluronic and CC2-DMPE, then add DiSBAC6(3) while vortexing, then add Bath1+β-Cyclodextrin.
# 1) Pre-spot compounds (in neat DMSO) into compound plates. Vehicle control (neat DMSO), the positive control (20 mM DMSO stock tetracaine, 125 μM final in assay) and test compounds are added to each well at 160× desired final concentration in neat DMSO. Final compound plate volume will be 80 μL (80-fold intermediate dilution from 1 μL DMSO spot; 160-fold final dilution after transfer to cell plate). Final DMSO concentration for all wells in assay is 0.625%.
# 2) Prepare Hexyl Dye Solution.
# 3) Prepare cell plates. On the day of the assay, medium is aspirated and cells are washed three times with 100 μL of Bath1 Solution, maintaining 25 μL residual volume in each well.
# 4) Dispense 25 μL per well of Hexyl Dye Solution into cell plates. Incubate for 20-35 minutes at room temp or ambient conditions.
# 5) Dispense 80 μL per well of Bath1 into compound plates. Acid Yellow-17 (1 mM) is added and Potassium Chloride can be altered from 4.5 to 20 mM depending on the NaV subtype and assay sensitivity.
# 6) Wash cell plates three times with 100 μL per well of Bath1, leaving 25 μL of residual volume. Then transfer 25 uL per well from Compound Plates to Cell Plates. Incubate for 20-35 minutes at room temp/ambient condition
# 7) Read Plate on E-VIPR. Use the current-controlled amplifier to deliver stimulation wave pulses for typically 9 seconds and a scan rate of 400 Hz. A pre-stimulus recording is performed for 0.5 seconds to obtain the un-stimulated intensities baseline. […]
# Chain of human NaV subtype, like NaV 1.7 (Q15858 whole entry): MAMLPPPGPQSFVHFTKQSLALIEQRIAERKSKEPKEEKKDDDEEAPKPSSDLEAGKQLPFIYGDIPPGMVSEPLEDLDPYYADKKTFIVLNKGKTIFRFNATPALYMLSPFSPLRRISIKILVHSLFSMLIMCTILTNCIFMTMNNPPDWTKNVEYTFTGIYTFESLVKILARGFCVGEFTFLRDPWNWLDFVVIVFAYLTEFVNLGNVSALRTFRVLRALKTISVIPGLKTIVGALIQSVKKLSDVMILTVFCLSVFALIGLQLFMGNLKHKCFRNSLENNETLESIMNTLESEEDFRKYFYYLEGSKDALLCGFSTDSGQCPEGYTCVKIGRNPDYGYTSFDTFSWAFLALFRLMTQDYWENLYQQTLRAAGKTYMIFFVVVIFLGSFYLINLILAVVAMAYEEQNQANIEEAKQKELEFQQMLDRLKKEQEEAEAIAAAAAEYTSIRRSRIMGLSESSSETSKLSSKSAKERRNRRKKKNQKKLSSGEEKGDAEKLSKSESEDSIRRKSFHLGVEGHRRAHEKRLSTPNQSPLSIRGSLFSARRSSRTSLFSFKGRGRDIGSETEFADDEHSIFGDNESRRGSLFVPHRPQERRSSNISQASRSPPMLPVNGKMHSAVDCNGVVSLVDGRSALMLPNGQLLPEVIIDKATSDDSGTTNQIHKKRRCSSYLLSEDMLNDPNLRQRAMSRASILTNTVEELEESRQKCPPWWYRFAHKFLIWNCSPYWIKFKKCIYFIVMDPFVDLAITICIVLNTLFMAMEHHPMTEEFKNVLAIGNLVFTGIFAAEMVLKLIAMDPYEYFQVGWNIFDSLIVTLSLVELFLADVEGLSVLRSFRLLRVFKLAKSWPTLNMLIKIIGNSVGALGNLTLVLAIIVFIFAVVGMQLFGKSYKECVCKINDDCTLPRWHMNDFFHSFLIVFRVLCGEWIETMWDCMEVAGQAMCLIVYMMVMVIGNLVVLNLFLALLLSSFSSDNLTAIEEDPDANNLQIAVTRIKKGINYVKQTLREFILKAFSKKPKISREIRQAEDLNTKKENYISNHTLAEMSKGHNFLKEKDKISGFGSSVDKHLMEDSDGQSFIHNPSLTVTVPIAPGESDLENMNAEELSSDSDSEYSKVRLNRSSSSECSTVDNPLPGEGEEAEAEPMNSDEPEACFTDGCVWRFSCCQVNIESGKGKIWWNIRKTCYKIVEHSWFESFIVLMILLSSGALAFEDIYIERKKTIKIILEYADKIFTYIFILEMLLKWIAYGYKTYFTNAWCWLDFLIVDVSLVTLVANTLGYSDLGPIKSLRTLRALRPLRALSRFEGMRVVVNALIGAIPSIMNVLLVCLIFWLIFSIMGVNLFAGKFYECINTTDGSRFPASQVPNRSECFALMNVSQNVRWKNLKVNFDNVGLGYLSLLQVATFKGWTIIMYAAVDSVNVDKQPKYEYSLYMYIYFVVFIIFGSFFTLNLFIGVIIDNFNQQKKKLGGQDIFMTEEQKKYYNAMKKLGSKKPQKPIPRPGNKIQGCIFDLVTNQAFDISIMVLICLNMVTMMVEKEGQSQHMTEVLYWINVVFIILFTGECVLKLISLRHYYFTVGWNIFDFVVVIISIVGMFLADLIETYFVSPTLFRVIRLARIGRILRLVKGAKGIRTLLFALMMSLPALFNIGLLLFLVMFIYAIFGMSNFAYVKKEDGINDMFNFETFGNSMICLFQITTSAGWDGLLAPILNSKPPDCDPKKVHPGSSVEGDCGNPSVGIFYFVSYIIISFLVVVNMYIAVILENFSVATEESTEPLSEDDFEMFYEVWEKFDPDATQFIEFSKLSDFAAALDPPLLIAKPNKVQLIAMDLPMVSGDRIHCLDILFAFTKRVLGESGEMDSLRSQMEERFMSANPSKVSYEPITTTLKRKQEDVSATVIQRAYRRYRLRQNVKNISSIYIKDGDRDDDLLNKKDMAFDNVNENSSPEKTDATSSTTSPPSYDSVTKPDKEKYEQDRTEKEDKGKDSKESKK
row,IC50,SMILES
1,≤ 2000 nM,CC(C)Oc1ccc(C(=O)N2CCC3(CC2)C[C@@H](OC(C)C)c2cc(F)ccc2O3)c(OC(F)F)c1 [Compound 55]
2,≤ 2000 nM,CCOCC1CC2(CCN(C(=O)c3ccc(OC(C)C)c(OC)c3)CC2)Oc2ccccc21 (centres unmarked) [Compound 56]
3,≤ 2000 nM,COc1cc(C(=O)N2CCC3(CC2)C[C@@H](OC(C)C)c2ccccc2O3)ccc1C(C)(C)O [Compound 57]
4,≤ 2000 nM,CC(C)O[C@@H]1CC2(CCN(C(=O)c3ccc(S(=O)(=O)CC4CCC4)cn3)CC2)Oc2ccc(F)cc21 [Compound 58]
5,≤ 2000 nM,CC(C)O[C@@H]1CC2(CCN(C(=O)c3ccc(S(=O)(=O)C(C)(C)C)cc3)CC2)Oc2ccc(F)cc21 [Compound 59]
6,≤ 2000 nM,COc1cc(C(=O)N2CCC3(CC2)CC(OC(C)C)c2ccccc2O3)ccc1C(C)(C)C (centres unmarked) [Compound 60]
7,≤ 2000 nM,CC1CCN(c2ccc(C(=O)N3CCC4(CC3)C[C@@H](OC(C)C)c3cc(F)ccc3O4)nc2)CC1 [Compound 61]
8,≤ 2000 nM,COc1cc(C(=O)N2CCC3(CC2)CC(OC(C)C)c2ccccc2O3)ccc1C(C)(C)CO (centres unmarked) [Compound 62]
9,≤ 2000 nM,COc1cc(C(=O)N2CCC3(CC2)CC(COC(F)F)c2ccccc2O3)ccc1OC(C)C (centres unmarked) [Compound 63]
10,≤ 2000 nM,CC[C@H](C)Nc1ccc(C(=O)N2CCC3(CC2)C[C@@H](OC(C)C)c2cc(F)ccc2O3)nc1 [Compound 64]
11,2000 to 5000 nM,CC(C)O[C@H]1CC2(CCN(C(=O)c3ccc4[nH]ncc4c3)CC2)Oc2ccccc21 [Compound 65]
12,≤ 2000 nM,CC[C@@H](C)Nc1ccc(C(=O)N2CCC3(CC2)C[C@@H](OC(C)C)c2cc(F)ccc2O3)nc1 [Compound 66]
13,≤ 2000 nM,CC(C)O[C@@H]1CC2(CCN(C(=O)c3ccc(N4CCC[C@@H]4C)cn3)CC2)Oc2ccc(F)cc21 [Compound 67]
14,≤ 2000 nM,CC(C)O[C@@H]1CC2(CCN(C(=O)c3ccc(S(=O)(=O)C(C)C)cc3)CC2)Oc2ccc(F)cc21 [Compound 68]
15,≤ 2000 nM,COc1nc(C)ccc1C(=O)N1CCC2(CC1)C[C@@H](OC(C)C)c1ccccc1O2 [Compound 69]
16,2000 to 5000 nM,COc1cc(C(=O)N2CCC3(CC2)C[C@@H](OC(C)C)c2ccccc2O3)ccc1OC(F)F [Compound 70]
17,≤ 2000 nM,COc1cc(C(=O)N2CCC3(CC2)C[C@H](OC(C)C)c2ccccc2O3)ccc1C(C)(C)CO [Compound 71]
18,≤ 2000 nM,Cc1cc(C(=O)N2CCC3(CC2)C[C@@H](OC(C)C)c2ccccc2O3)ccc1OC(C)C [Compound 72]
19,≤ 2000 nM,CC(C)Oc1ccc(C(=O)N2CCC3(CC2)C[C@@H](OC(C)C)c2ccccc2O3)c(F)c1 [Compound 74]
20,≤ 2000 nM,CC(C)O[C@@H]1CC2(CCN(C(=O)c3ccc(N4CCC[C@H]4C)cn3)CC2)Oc2ccc(F)cc21 [Compound 75]
21,≤ 2000 nM,CC(C)Oc1ccc(C(=O)N2CCC3(CC2)CC(OC(C)C)c2ccccc2O3)cc1C#N (centres unmarked) [Compound 76]
22,≤ 2000 nM,Cc1cc(C(=O)N2CCC3(CC2)C[C@H](O)c2cc(F)ccc2O3)ccc1OC(C)C [Compound 77]
23,≤ 2000 nM,CC(C)OC1CC2(CCN(C(=O)c3ccc(S(=O)(=O)C(C)C)cc3)CC2)Oc2c(F)cccc21 (centres unmarked) [Compound 78]
24,≤ 2000 nM,COc1cc(C(=O)N2CCC3(CC2)C[C@@H](OC(C)C)c2cc(F)ccc2O3)ccc1OC(F)F [Compound 79]
25,≤ 2000 nM,Cc1nc(C(=O)N2CCC3(CC2)C[C@@H](OC(C)C)c2ccccc2O3)ccc1OC(C)C [Compound 80]
26,≤ 2000 nM,COc1cc(C(=O)N2CCC3(CC2)CC(OC(C)C)c2ccccc2S3(=O)=O)ccc1OC(C)C (centres unmarked) [Compound 81]
27,≤ 2000 nM,CC(C)O[C@@H]1CC2(CCN(C(=O)c3ccc(S(=O)(=O)C4CC4)cc3)CC2)Oc2ccc(F)cc21 [Compound 82]

row,IC50,SMILES
1,≤ 2000 nM,COc1cc(C(=O)N2CCC3(CC2)CC(CSC)c2ccccc2O3)ccc1OC(C)C (centres unmarked) [Compound 83]
2,≤ 2000 nM,COc1cc(C(=O)N2CCC3(CC2)CC(OC(C)C)c2cccnc2O3)ccc1OC(C)C (centres unmarked) [Compound 84]
3,2000 to 5000 nM,Cc1cc(S(C)(=O)=O)ccc1C(=O)N1CCC2(CC1)C[C@@H](OC(C)C)c1cc(F)ccc1O2 [Compound 85]
4,> 5000 nM,COc1cc(C(=O)N2CCC3(CC2)CC(OCCS(C)(=O)=O)c2ccccc2O3)ccc1OC(C)C (centres unmarked) [Compound 86]
5,≤ 2000 nM,Cc1cc(C(F)F)n2ncc(C(=O)N3CCC4(CC3)C[C@@H](OC(C)C)c3ccccc3O4)c2n1 [Compound 87]
6,≤ 2000 nM,CC(C)OC1CC2(CCN(C(=O)c3ccccc3OC(F)F)CC2)Oc2ccccc21 (centres unmarked) [Compound 88]
7,2000 to 5000 nM,Cc1cc(C(=O)N2CCC3(CC2)CC(OC(C)C)c2cnccc2O3)ccc1OC(C)C (centres unmarked) [Compound 89]
8,≤ 2000 nM,Cc1cc(C(=O)N2CCC3(CC2)CC(OC(C)C)c2cccc(F)c2O3)ccc1S(=O)(=O)C(C)C (centres unmarked) [Compound 90]
9,≤ 2000 nM,CC(C)Oc1ccc(C(=O)N2CCC3(CC2)C[C@@H](OC(C)C)c2ccccc2O3)cc1O [Compound 91]
10,≤ 2000 nM,Cc1cc(C(=O)N2CCC3(CC2)C[C@@H](OC(C)C)c2cc(F)ccc2O3)ccc1OC1COC1 [Compound 92]
11,≤ 2000 nM,CCC1COCCN1c1ccc(C(=O)N2CCC3(CC2)C[C@@H](OC(C)C)c2cc(F)ccc2O3)nc1 (some centres unmarked) [Compound 93]
12,≤ 2000 nM,COc1cc(C(=O)N2CCC3(CC2)Oc2ccccc2C(OC(C)C)C3C)ccc1OC(C)C (centres unmarked) [Compound 94]
13,≤ 2000 nM,CC(C)O[C@@H]1CC2(CCN(C(=O)c3ccc(N4CC5CC4CO5)cn3)CC2)Oc2ccc(F)cc21 (some centres unmarked) [Compound 95]
14,≤ 2000 nM,Cc1cc(C(=O)N2CCC3(CCc4ccccc4O3)CC2)ccc1OC(C)C [Compound 96]
15,> 5000 nM,CC(C)O[C@@H]1CC2(CCN(C(=O)c3ccc(N(C)CCN(C)C)cn3)CC2)Oc2ccc(F)cc21 [Compound 97]
16,≤ 2000 nM,COc1cc(C(=O)N2CCC3(CC2)C[C@@H](O)c2cc(F)ccc2O3)ccc1OC(C)C [Compound 98]
17,≤ 2000 nM,CC(C)Oc1ccc(C(=O)N2CCC3(CC2)CC(OC(C)C)c2ccccc2S3(=O)=O)cc1 (centres unmarked) [Compound 99]
18,≤ 2000 nM,CCOC1Cc2ccccc2OC12CCN(C(=O)c1ccc(OC(C)C)c(OC)c1)CC2 (centres unmarked) [Compound 100]
19,> 5000 nM,Cc1nc(C(=O)N2CCC3(CC2)C[C@@H](OC(C)C)c2cc(F)ccc2O3)ccc1S(=O)(=O)C(C)C [Compound 101]
20,> 5000 nM,CC(C)O[C@@H]1CC2(CCN(C(=O)c3ccc(N4CCCC4)cn3)CC2)Oc2ccccc21 [Compound 102]
21,> 5000 nM,CC(C)O[C@@H]1CC2(CCN(C(=O)c3ccc(N4CC(S(C)(=O)=O)C4)cn3)CC2)Oc2ccc(F)cc21 [Compound 103]
22,≤ 2000 nM,Cc1cc(C(=O)N2CCC3(CC2)CC(OC(C)C)c2nn(C)cc2O3)ccc1OC(C)C (centres unmarked) [Compound 104]
23,≤ 2000 nM,COc1cc(C(=O)N2CCC3(CC2)CC(OCc2cccnc2)c2ccccc2O3)ccc1OC(C)C (centres unmarked) [Compound 105]
24,≤ 2000 nM,COc1cc(C(=O)N2CCC3(CC2)C[C@H](OC(C)C)c2ccccc2O3)ccc1OCCCO [Compound 106]
25,≤ 2000 nM,Cc1nc(C(=O)N2CCC3(CC2)C[C@H](OC(C)C)c2ccccc2O3)ccc1OC(C)C [Compound 107]
26,≤ 2000 nM,CC(C)OCC1CC2(CCN(C(=O)c3ccc(OC(C)C)c(CO)c3)CC2)Oc2ccccc21 (centres unmarked) [Compound 108]
